Reference: paper PMC3398342, “Cyanidin-3-O-β-glucoside regulates fatty acid metabolism via an AMP-activated protein kinase-dependent signaling pathway in human HepG2 cells” (2012)
pEC50, pIC50: −log10 of the molar value.

Experiments:
[1] = target: T1, fructose1,6-diphosphatase (FBPase); assay: Malachite Green phosphate-release assay with D-fructose-1,6-diphosphate; type: biochemical
T1 construct: gene FBP1

[2] = target: T2, glycogen phosphorylase (GPPase) (Oryctolagus cuniculus, UniProt P00489); assay: phosphoglucomutase/G6PDH-coupled spectrophotometric activity assay with glycogen; activation; type: biochemical
T2 construct: gene PYGM
T2 sequence (P00489 2-843): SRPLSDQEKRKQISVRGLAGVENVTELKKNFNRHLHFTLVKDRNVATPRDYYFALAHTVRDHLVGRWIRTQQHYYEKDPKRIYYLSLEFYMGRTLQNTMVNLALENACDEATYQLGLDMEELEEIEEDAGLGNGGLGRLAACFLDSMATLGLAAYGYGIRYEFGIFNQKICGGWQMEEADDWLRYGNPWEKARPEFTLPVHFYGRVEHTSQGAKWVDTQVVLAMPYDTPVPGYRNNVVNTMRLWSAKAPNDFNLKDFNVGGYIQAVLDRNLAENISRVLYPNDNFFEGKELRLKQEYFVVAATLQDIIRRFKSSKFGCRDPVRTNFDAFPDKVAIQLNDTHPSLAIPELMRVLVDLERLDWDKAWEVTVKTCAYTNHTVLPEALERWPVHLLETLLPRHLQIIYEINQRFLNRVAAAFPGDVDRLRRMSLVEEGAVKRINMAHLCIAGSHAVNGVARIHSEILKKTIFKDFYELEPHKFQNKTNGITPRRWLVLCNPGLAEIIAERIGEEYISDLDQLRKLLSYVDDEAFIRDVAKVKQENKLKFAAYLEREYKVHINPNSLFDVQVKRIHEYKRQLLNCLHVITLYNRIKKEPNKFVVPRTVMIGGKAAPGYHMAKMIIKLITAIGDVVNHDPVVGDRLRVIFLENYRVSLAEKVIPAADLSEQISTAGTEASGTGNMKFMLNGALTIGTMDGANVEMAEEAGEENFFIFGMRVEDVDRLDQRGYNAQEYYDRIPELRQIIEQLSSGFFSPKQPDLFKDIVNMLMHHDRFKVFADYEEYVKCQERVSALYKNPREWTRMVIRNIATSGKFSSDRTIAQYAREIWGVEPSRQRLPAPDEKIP

pIC50 [1]: 5.80 | pEC50 [2]: 4.73
SMILES: Nc1ncnc2c1ncn2[C@@H]1O[C@H](COP(=O)(O)O)[C@@H](O)[C@H]1O [AMP]
